Test results reported in patent US10799467B2, “Use of the phytocannabinoid cannabidivarin (CBDV) in the treatment of epilepsy” (GW Pharma Limited, priority 2010, dated 2020).

Tests used:
[1] = system: epileptiform burst activity in hippocampal slices (Mg2+-free model); assay: Mg2+-free in vitro epileptiform model in hippocampal brain slices (multi-electrode array); format: cell-based, Wistar rats
Procedure: (§1) Use of isolated CBDV in two in vitro epileptiform models in hippocampal brain slices
(§2) Hippocampal slices were produced acutely from P>21 Wistar rats and activity recorded by multi-electrode arrays (MEA).
(§3) To induce epileptiform activity, either Mg^2+ was removed (Mg^2+-free model) or 100 μM 4-aminopyridine was added (4-AP model). 30 min after epileptiform burst activity was established, CBDV was added cumulatively (1, 10, 100 μM; 30 min each).
(§4) The effects of CBDV on epileptiform burst amplitude and duration were measured (Table 2.1).

[2] = system: epileptiform burst activity in hippocampal slices (4-AP model); assay: 4-AP in vitro epileptiform model in hippocampal brain slices (multi-electrode array); format: cell-based, Wistar rats
Procedure: as §1, §2, §3, §4

[3] = system: PTZ-induced seizures; assay: CBDV with standard anti-epileptic drugs in the PTZ model of generalised seizures; format: in vivo, Wistar rats
Procedure: As described in Example 2 above. Varying doses of the SAED's ethosuximide and valproate were tested in combination to isolated CBDV at a dose of 200 mg/kg.

[4] = system: PTZ-induced seizures; assay: PTZ model of generalised seizures (80 mg/kg PTZ); format: in vivo, Wistar rats; details: for proportion of animals that died / proportion of animals reaching tonic-clonic seizures: vehicle 8 of 15
Procedure: Male Wistar rats (P24-29; 75-110 g) were used to assess the effects of the phytocannabinoid CBDV in the PTZ model of generalised seizures. Animals were habituated to the test environment, cages, injection protocol and handling prior to experimentation. Animals were housed in a room at 21° C. on a 12 hour light: dark cycle (lights on 0900) in 50% humidity, with free access to food and water.
Five 6 L Perspex tanks with lids were placed on a single bench with dividers between them. Closed-circuit television (CCTV) cameras were mounted onto the dividers to observe rat behaviour. Sony Topica CCD cameras (Bluecherry, USA) were linked via BNC cables to a low-noise PC via Brooktree digital capture cards (Bluecherry, USA). Zoneminder (http://www.zoneminder.com) software was used to monitor rats, start and end recordings and manage video files. In-house Linux scripts were used to encode video files into a suitable format for further offline analysis using The Observer (Noldus Technologies).
A range of doses of PTZ (50-100 mg/kg body weight) were used to determine the best dose for induction of seizures (see below). As a result, a dose of 80 mg/kg injected intra-peritoneally (IP; stock solution 50 mg/ml in 0.9% saline) were used to screen the CBDV.
On the day of testing, pure CBDV was administered via intra-peritoneal (i.p.) injection at doses of 50, 100 and 200 mg/kg alongside animals that were injected with a matched volume of the cannabinoid vehicle (2:1:17 ethanol:Cremophor: 0.9% w/v NaCl solution), which served as the negative control group. Animals were then observed for 1 hour, after which time they received an IP injection of 80 mg/kg PTZ. Negative vehicle controls were performed in parallel with cannabinoid-dosed subjects. After receiving a dose of PTZ, animals were observed and videoed to determine the severity of seizure and latency to several seizure behaviour types (see in vivo analysis, below). Animals were filmed for half an hour after last sign of seizure, and then returned to their cage.
Animals were observed during experimental procedures, but all analysis was performed offline on recorded video files using The Observer behavioural analysis software (Noldus, Netherlands). A seizure severity scoring system was used to determine the levels of seizure experienced by subjects (Pohl & Mares, 1987). All signs of seizure were detailed for all animals.
The latency (in seconds) from injection of PTZ to first myoclonic jerk (FMJ; score of 1), and to the animal attaining “forelimb clonus with tonic component and body twist” (score of 3.5) were recorded. FMJ is an indicator of the onset of seizure activity, whilst >90% of animals developed scores of 3.5, and so is a good marker of the development of more severe seizures. Data are presented as the mean±S.E.M. within an experimental group.
This is given as the median value for each experimental group based on the scoring scale below.
The percentage of animals within an experimental group that died as a result of PTZ-induced seizures. Note that the majority of animals that developed tonic-clonic seizures (scores of 4 and 5) died as a result, and that a score of 6 (death) automatically denotes that the animal also experienced tonic-clonic seizures.
This is given as the mean±S.E.M. for each experimental group.
For measures of latency and severity, one way analysis of variance (ANOVA) was performed on the four groups together (vehicle and 50, 100 and 200 mg/kg CBDV) to detect overall effects of CBDV (p≤0.05 considered significant).
Significant ANOVA results were followed by post hoc tests to test differences between vehicle and drug groups (Tukey's test, p≤0.05 considered significant).
Methodology as described in Example 2.
General methodology is as described in Example 2.
Three doses of THCV BDS were assessed against a concentration of PTZ known to induce moderate seizures in rats (70 mg/kg; see pilot, above). […]

[5] = system: pilocarpine-induced seizures; assay: Pilocarpine model of epilepsy; format: in vivo; details: CBDV 50 and 100 mg/kg IP; pilocarpine 380 mg/kg IP
Procedure: Isolated CBDV was injected intra-peritoneally (IP) in the standard vehicle (1:1:18 ethanol:Cremophor:0.9%^w/v NaCl) at doses of 50, 100 and 200 mg/kg alongside animals that received vehicle alone at a matched volume. 15 minutes later methylscopolamine (1 mg/kg; to reduce peripheral muscarinic effects of pilocarpine) was administered followed, 45 minutes later by pilocarpine (380 mg/kg, IP) administration.

[6] = valproate (varying doses) co-administered with CBDV 200 mg/kg

## C=C(C)[C@@H]1CCC(C)=C[C@H]1c1c(O)cc(CCC)cc1O [CBDV, Cannabidivarin]
[1]; CBDV 1 μM
  Burst amplitude (% of control) CA1: 82.23 ± 10.4 % of control
  Burst duration (% of control) CA1: 99.3 ± 4.5 % of control
  Burst amplitude (% of control) CA3: 112.7 ± 13.7 % of control
  Burst duration (% of control) CA3: 101.7 ± 2.3 % of control
  Burst amplitude (% of control) DG: 89.8 ± 8.6 % of control
  Burst duration (% of control) DG: 90.6 ± 4.5 % of control
[1]; CBDV 10 μM
  Burst amplitude (% of control) CA1: 79.9 ± 6.9 % of control
  Burst duration (% of control) CA1: 91.2 ± 3.8 % of control
  Burst amplitude (% of control) CA3: 104.8 ± 10.3 % of control
  Burst duration (% of control) CA3: 93.9 ± 4.1 % of control
  Burst amplitude (% of control) DG: 86.4 ± 3.6 % of control
  Burst duration (% of control) DG: 92.0 ± 3.2 % of control
[1]; CBDV 100 μM
  Burst amplitude (% of control) CA1: 80.4 ± 8.0 % of control
  Burst duration (% of control) CA1: 74.0 ± 5.8 % of control
  Burst amplitude (% of control) CA3: 102.9 ± 13.0 % of control
  Burst duration (% of control) CA3: 78.5 ± 6.6 % of control
  Burst amplitude (% of control) DG: 79.5 ± 5.6 % of control
  Burst duration (% of control) DG: 75.6 ± 5.4 % of control
[2]; CBDV 1 μM
  Burst amplitude (% of control) CA1: 89.3 ± 5.6 % of control
  Burst duration (% of control) CA1: 104.3 ± 8.0 % of control
  Burst amplitude (% of control) CA3: 103.0 ± 5.8 % of control
  Burst duration (% of control) CA3: 91.0 ± 6.0 % of control
  Burst amplitude (% of control) DG: 94.2 ± 3.0 % of control
  Burst duration (% of control) DG: 95.7 ± 5.9 % of control
[2]; CBDV 10 μM
  Burst amplitude (% of control) CA1: 88.3 ± 5.2 % of control
  Burst duration (% of control) CA1: 85.9 ± 6.2 % of control
  Burst amplitude (% of control) CA3: 121.9 ± 17.0 % of control
  Burst duration (% of control) CA3: 82.5 ± 4.8 % of control
  Burst amplitude (% of control) DG: 91.2 ± 4.9 % of control
  Burst duration (% of control) DG: 83.8 ± 4.4 % of control
[2]; CBDV 100 μM
  Burst amplitude (% of control) CA1: 89.5 ± 5.3 % of control
  Burst duration (% of control) CA1: 85.9 ± 5.8 % of control
  Burst amplitude (% of control) CA3: 110.3 ± 7.0 % of control
  Burst duration (% of control) CA3: 79.7 ± 5.4 % of control
  Burst amplitude (% of control) DG: 95.9 ± 4.3 % of control
  Burst duration (% of control) DG: 83.4 ± 4.1 % of control
[3]; CBDV 200 mg/kg
  severity of the epilepsy, CBDV compared with SAED: lessen the severity of the epilepsy to a greater degree than the existing epileptic drug valproate
[3]; [6]
  mortality (independent effect when co-administered): significant decreases
  onset latency (independent effect when co-administered): significant decreases
  seizure severity (independent effect when co-administered): significant decreases
[4]; 100 mg/kg CBDV i.p., 80 mg/kg PTZ, p=0.002
  proportion of animals that died: 1 out of 15
[4]; 100 mg/kg CBDV i.p., 80 mg/kg PTZ, p=0.036
  proportion of animals reaching tonic-clonic seizures: 4 of 15
[4]; 200 mg/kg CBDV i.p. 1 hour before 80 mg/kg PTZ, p=0.03
  latency to seizure onset vs vehicle: significantly higher
[4]; 200 mg/kg CBDV i.p., 80 mg/kg PTZ, p=0.014
  median seizure severity vs vehicle: significantly lower
[4]; 200 mg/kg CBDV i.p., 80 mg/kg PTZ, p=0.032
  latency to clonic seizures vs vehicle: significant increase
[4]; 200 mg/kg CBDV i.p., 80 mg/kg PTZ, vehicle 1 of 15, p=0.003
  animals that experienced no seizure at all: 5 of 15
[4]; 200 mg/kg CBDV i.p., 80 mg/kg PTZ, p<0.001
  proportion of animals that died: 2 out of 15
[4]; 200 mg/kg CBDV i.p., 80 mg/kg PTZ, p=0.01
  proportion of animals reaching tonic-clonic seizures: 3 of 15
[4]; overall or at any specific dose (50, 100, 200 mg/kg CBDV i.p.), 80 mg/kg PTZ
  latency to tonic-clonic seizures: No significant effect
[5]
  mortality: decreased
